Target: T1, Alpha 2C (Homo sapiens, UniProt P18825)
T1 sequence (P18825 1-462): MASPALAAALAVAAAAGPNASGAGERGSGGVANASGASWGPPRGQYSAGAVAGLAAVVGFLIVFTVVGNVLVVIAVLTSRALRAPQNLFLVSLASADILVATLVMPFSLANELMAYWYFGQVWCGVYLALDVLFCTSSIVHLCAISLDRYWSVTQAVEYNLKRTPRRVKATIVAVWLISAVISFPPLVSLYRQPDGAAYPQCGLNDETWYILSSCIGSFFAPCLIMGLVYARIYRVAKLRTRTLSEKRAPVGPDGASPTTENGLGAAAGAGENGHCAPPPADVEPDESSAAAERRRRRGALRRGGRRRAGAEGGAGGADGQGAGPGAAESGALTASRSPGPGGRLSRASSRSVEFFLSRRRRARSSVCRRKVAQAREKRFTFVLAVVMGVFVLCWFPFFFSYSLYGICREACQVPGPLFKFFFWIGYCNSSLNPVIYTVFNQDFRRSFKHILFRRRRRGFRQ
Test: Alpha 2C adrenergic receptor functional activity (procedure of U.S. 60/911,442)
Format: cell-based
Excerpt: U.S. Provisional Patent Application Ser. No. 60/911,442, filed Apr. 12, 2007, describes the procedure used to obtain the data in the table below. That procedure is incorporated by reference herein.

`CCC[C@@H]1CCCC[C@H]1NC(=O)NCCF` [1-(2-Fluoro-ethyl)-3-(2R-propyl-1R-cyclohexyl)-urea] was tested, and the “Alpha 2C EC50” value was “not active”.

From patent US20110028559A1, “SUBSTITUTED FLUOROETHYL UREAS AS ALPHA 2 ADRENERGIC AGENTS” (priority 2007, published 2011)
